Results on five compounds are retold here after paper PMC10073126, “Levosimendan inhibits disulfide tau oligomerization and ameliorates tau pathology in Tau^P301L-BiFC mice” (Experimental & Molecular Medicine, 2023).

For data set [1], the target named is T1, tauK18 (Homo sapiens, UniProt P10636).
T1 construct: under in vitro conditions using a purified tauK18 fragment; 6xHis; made in house; host or cells: E. coli BL21 (DE3)
In words: In vitro tau aggregation assay (thioflavin S). The format is biochemical. The settings on record: heparin-induced, 5 days. On the procedure:
To evaluate the inhibitory effect of drugs on tau aggregation, tauK18 protein (0.5 mg/mL) was incubated with each drug at various concentrations in the presence of DTT (100 μM) and heparin (0.1 mg/mL) at 37 °C for 5 days with vigorous shaking (220 rpm). For the tau disaggregation assay, the preformed aggregation mixture of tauK18 was incubated with each drug at 37 °C for 4 days with vigorous shaking (220 rpm). On the final day of incubation, the level of β-sheet aggregates was evaluated by thioflavin S (ThS) assay. For the ThS assay, 5 μL of each mixture was transferred to a black 384-well plate with 45 μL of PBS containing 10 μM ThS. ThS fluorescence (λex = 430 nm, and λem = 500 nm) was measured by using a Flexstation2 spectrophotometer (Molecular Devices).

In data set [2] the target is T2, tau (Homo sapiens, UniProt P10636). Description: Tau-BiFC response in tau-BiFC cells (high-content imaging). Conditions: 100 μM, 48 h, tauK18^P301L. The format is cell-based. Also on record: expressed in transfected cells; host or cells: HEK293 Tau-BiFC cells (G418-selected).
For another data set, the target named is tauK18 fragment. In words: non-reducing SDS-PAGE with Coomassie staining (disulfide-linked oligomers); tauK18 0.5 mg/mL in PBS pH 7.4 with DTT (100 uM) and heparin (0.1 mg/mL), RT, 5 h, shaking; 4-20% gel; DMSO control, MB, LMTM or levosimendan (10, 30, 100 uM).
The next data set deals with T3, tau cysteines (Homo sapiens, UniProt P10636).
T3 construct: 6xHis; made in house; host or cells: E. coli BL21 (DE3)
In words: Covalent binding to tau (14C autoradiography, MALDI-TOF of R1-R4 peptides). The settings on record: 720 μM with tauK18 72 μM, 2 h, RT. As for the experimental part: TauK18 (1 mg/mL, 72 μM) was incubated with ^14C-levosimendan (720 μM) in PBS containing 5% DMSO at RT for 2 h. Then, the mixture was separated on a 15% SDS–PAGE gel under nonreducing conditions and stained with Coomassie blue. For autoradiography, the SDS–PAGE gel was transferred to a PVDF membrane and scanned by Typhoon FLA 7000 IP (GE Healthcare).
Each repeat domain (R1, R2, R3, R4, R2-C291S or R3-C322S, 150 μM) was incubated with levosimendan (molar ratio 1:10 of a tau repeat domain: levosimendan) at RT for 37 h. The samples were mixed with matrix solution (10 mg mL^−1 sinapinic acid in 0.1% (v/v) trifluoroacetic acid/CAN) at a ratio of 1:1. The mixtures were directly spotted onto the MALDI target and dried. Mass spectra were acquired in reflection/linear positive ion mode in the m/z range of 2000–100,000 using an Ultraflex III TOF/TOF mass spectrometer controlled by Flex Control 3.0 (Bruker Daltonics). The default operating conditions were as follows: ion source 1, 25.0 kV; ion source 2, 23.0 kV; lens voltage, 6.0 kV; laser repetition rate = 100 Hz. All spectra were generated automatically in the instrument software and based on averaging 1000 shots from 10 nonoverlapping positions (100 shots/position).

In data set [3] the target is T1, tauK18. In words: TauK18 oligomerization assay in vitro (SDS-PAGE). The format is biochemical. The settings on record: 100 μM, 5 h, nonreducing SDS-PAGE; DMSO control 50 ± 1.1%. On the procedure:
To induce tau oligomerization, tauK18 (0.5 mg/mL dissolved in PBS, pH 7.4) was incubated with each drug in the presence of DTT (100 μM) and heparin (0.1 mg/mL) at RT for 5 h with vigorous shaking. Then, tau oligomers were separated on 4–20% SDS‒PAGE gels under reducing and nonreducing conditions and visualized by Coomassie blue staining.

For data set [4], the system named is tau. Description: Tau immunoblot of primary hippocampal neuron lysates. The settings on record: 3 μM, nonreducing SDS-PAGE, primary neurons, tauK18^P301L; control 1.8 ± 0.3-fold. The format is cell-based, rat. On the procedure: Band intensity was quantified using ImageJ software (NIH). All data were normalized to β-actin.
(§1) Primary hippocampal neurons were isolated from Day 18 embryonic Sprague‒Dawley rat brains as described previously. The neurons were seeded at a density of 3.5 × 10^5 cells per well on a poly-D-lysine-coated 6-well plate and maintained in neurobasal medium at 37 °C in a humidified atmosphere of 5% CO2. The neurobasal medium contained 2% B27 supplement, 0.5 mM GlutaMAX, 100 units/mL penicillin, and 100 μg/mL streptomycin. Every 3 days, 50% of the medium was replaced with fresh neurobasal medium. At DIV10, neurons were incubated with MB, LMTM (3 µM), or levosimendan (10 µM) in the presence of tauK18^P301L (10 µg/mL) for 48 h.
(Immunoblotting shows a protein as a band on a membrane.)

For a further data set, the system named is Tau-BiFC cells. Description: Flow cytometry analysis of tau-BiFC cells. The format is cell-based, human. The settings on record: drug 5 μM with tauK18^P301L. On the procedure:
After 24 h, BiFC cells were collected and subjected to flow cytometry analysis using a BD FACSLyric^TM cytometer (BD Biosciences). A total of 50,000 events were acquired per sample. All samples were gated using the same gating tree and gate positions: side scatter area (SSC-A) vs. forward scatter area (FSC-A) for viable and singlet cell populations. BiFC fluorescence was excited by a 488 nm wave laser and collected through a 527/32 bandpass filter.

Data set [5] can be described thus: Cell viability of tau-BiFC cells (number of nuclei). The format is cell-based, human. Conditions: human, HEK293 Tau-BiFC cells, 48 h of treatment. On the procedure: HEK293 Tau-BiFC cells were maintained in Dulbecco’s modified Eagle medium (DMEM) supplemented with 10% fetal bovine serum (FBS), 100 units/mL penicillin, 100 µg/mL streptomycin and 100 µg/mL Geneticin (G418) in a humidified atmosphere containing 5% CO2 at 37 °C. Tau-BiFC cells were activated by treatment with FK (30 μM) or tauK18^P301L (5 μg/mL).
For screening of FDA-approved & Passed Phase I Drug Library, tau-BiFC cells were plated on µ-clear 384-well plates. The next day, the cells were cotreated with forskolin and 1,018 library compounds at a concentration of 10 µM. MB and LMTM (3 µM) were used as positive controls. After 46 h, nuclei were counterstained with Hoechst (Invitrogen). BiFC (λex = 460–490 nm and λem = 500–550 nm) and Hoechst (λex = 355–385 nm and λem = 430–500 nm) fluorescence images were acquired automatically by using Operetta® (PerkinElmer). BiFC fluorescence intensity and the number of nuclei were quantified using Harmony 3.1 software (PerkinElmer). Integrated tau-BiFC intensity represents the area of selected cell X mean fluorescence intensity. The means and standard deviations (S.D.) of BiFC fluorescence intensities and the number of nuclei were plotted using GraphPad Prism.

The test system of data set [6] is primary hippocampal neurons. In words: NeuO staining, number of neurons and neurite lengths. The format is cell-based. The settings on record: 3 μM, tauK18^P301L, 48 h. As for the experimental part: as §1
At DIV10, neurons grown on a 96-well plate were treated with MB, LMTM (3 µM), or levosimendan (10 µM) followed by tauK18^P301L activation. After 48 h, the neurons were stained with NueO (50 nM), a neuron-selective probe. NeuO fluorescence (λex = 460–490 nm and λem = 518–580 nm) images were acquired by using Operetta® (PerkinElmer). The number of neurons and total lengths of neurites were quantified by Harmony 3.1 software (PerkinElmer). Error bars represent the standard deviations (S.D.) of four replicate experiments.

Data set [7] has as its target T2, tau. Description: Tau immunoblot of tau-BiFC cell lysates (reducing and nonreducing SDS-PAGE). Conditions: 5 μM, tauK18^P301L-activated tau-BiFC cells.
Protocol: For reducing SDS‒PAGE analysis, cell or brain lysates were mixed with 4x Laemmli buffer containing 10% β-mercaptoethanol (BME) and boiled at 97 °C for 5 min. For nonreducing SDS‒PAGE analysis, cell or brain lysates were mixed with 4x Laemmli buffer without BME. For immunoblot analysis, 10 μg of each lysate was separated on a 10% SDS–PAGE gel and transferred to a PVDF membrane. The levels of total tau and phosphorylated tau were detected by anti-tau antibodies against 2B11 (IBL), Tau5 (Abcam), pSer199 (Abcam), pSer396 (Abcam), and pThr205 (Abcam). […] Band intensity was quantified using ImageJ software (NIH). All data were normalized to β-actin.

T1 sequence (P10636 561-685 limits assumed): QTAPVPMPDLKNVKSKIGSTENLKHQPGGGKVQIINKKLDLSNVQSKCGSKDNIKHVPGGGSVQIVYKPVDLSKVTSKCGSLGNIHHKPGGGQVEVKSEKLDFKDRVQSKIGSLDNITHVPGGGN
T2 sequence (P10636 1-441 isoform P10636-8): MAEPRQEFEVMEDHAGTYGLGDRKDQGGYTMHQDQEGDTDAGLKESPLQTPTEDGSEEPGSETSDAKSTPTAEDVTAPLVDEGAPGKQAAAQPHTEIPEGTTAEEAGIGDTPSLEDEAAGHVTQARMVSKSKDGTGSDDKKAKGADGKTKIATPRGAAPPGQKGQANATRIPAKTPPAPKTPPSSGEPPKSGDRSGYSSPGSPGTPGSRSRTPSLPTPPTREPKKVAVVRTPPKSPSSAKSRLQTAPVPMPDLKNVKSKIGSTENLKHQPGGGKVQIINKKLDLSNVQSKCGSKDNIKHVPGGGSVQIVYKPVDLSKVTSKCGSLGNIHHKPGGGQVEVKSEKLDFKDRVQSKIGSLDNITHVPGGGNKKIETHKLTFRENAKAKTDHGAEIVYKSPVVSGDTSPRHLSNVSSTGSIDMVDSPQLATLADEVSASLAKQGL
T2 sequence (P10636 1-441 isoform P10636-8): as above
T3 sequence (P10636 561-689 limits assumed): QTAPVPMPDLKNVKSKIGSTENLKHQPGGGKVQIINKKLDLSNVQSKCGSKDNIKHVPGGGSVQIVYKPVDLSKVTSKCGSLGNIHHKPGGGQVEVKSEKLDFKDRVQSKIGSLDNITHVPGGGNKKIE

As to `CC(=O)Nc1ccc(C2=NNC(=O)C[C@H]2C)cc1` [OR-1896], the “Inhibition of tau aggregation in vitro (ThS response)” value on tauK18 [1] is recorded as “did not inhibit tau aggregation in vitro”. Also, the “Inhibition of tau-BiFC fluorescence increase” value on tau [2] is given as “did not inhibit the tau-BiFC fluorescence increase”.
The compound tauK18 fragment (domain or fragment) displayed a percent of total tau as disulfide-linked oligomers (DMSO control) with tauK18 fragment of 50%.
For `C[C@@H]1CC(=O)NN=C1c1ccc(N)cc1` [OR-1855], the “Inhibition of tau aggregation in vitro (ThS response)” value on tauK18 [1] is “did not inhibit tau aggregation in vitro”. Further, the “Inhibition of tau-BiFC fluorescence increase” value on tau [2] is recorded as “did not inhibit the tau-BiFC fluorescence increase”.
In the case of `CC1CC(=O)NN=C1c1ccc(NN=C(C#N)[14C]#N)cc1` (stereo not shown) [^14C-levosimendan], the “Covalent labeling of tau on nonreducing SDS-PAGE (14C-radiography)” value at tau cysteines is recorded as “covalent attachment to tau”.
By GI50 is commonly meant the concentration at which growth is held to half of that of the control. The low end stands for greater sensitivity of the cells, the high end for lower sensitivity of the cells. In the case of `CN(C)c1ccc2nc3ccc(=[N+](C)C)cc-3sc2c1` [MB, methylene blue], the “Level of disulfide-linked tau oligomers (of total tau)” value at tauK18 [3] was 77.6 ± 2.0%. Also, in the data set with tau [4], the “Level of disulfide-linked tau oligomers compared to basal” value is on record as 2.3 ± 0.5 fold. Also, in the data set on Tau-BiFC cells (24 h), the “P1: intact cell population out of total cells” value is 13.7%. Moreover, the “Median BiFC fluorescence intensity of BiFC-responding cells” value in the data set on Tau-BiFC cells (BiFC^ON control […] ± 62, basal 332 ± 110) amounted to 648 ± 49. In data set [5] (Tau-BiFC^ON by forskolin (30 μM)), the GI50 at 48 h came out at 6.2 ± 0.4 µM. Moreover, the GI50 at 48 h in data set [5] (Tau-BiFC^ON by tauK18^P301L (5 μg/mL)) is 7.1 ± 0.3 µM. The “Number of NeuO-stained live neurons” value in data set [6] (basal 1925 ± 66, control 943 ± 30) stood at 986 ± 150 neurons. In addition, the Neurite length entry in [6] (control 142.8 ± 17.8 μm) is listed as “did not show a significant effect on neuronal integrity”. Besides, on tau [7] (nonreducing SDS-PAGE, control 2.4 ± 0.4-fold), the “Level of disulfide-linked tau oligomers compared to basal” value came to 1.6 ± 0.3 fold. At tau [7] (reducing gel), the “Level of pS199-positive monomers compared to basal” value is on record as 0.2 ± 0.1 fold, the “Level of pS199-positive oligomers compared to basal” value stood at 0.4 ± 0.2 fold, the “Level of pT205-positive monomers compared to basal” value came out at 0.1 ± 0.1 fold and the “Level of pT205-positive oligomers compared to basal” value was found to be 0.7 ± 0.3 fold.
